The values below come from US5932580A, “PDGF receptor kinase inhibitory compounds their preparation and compositions” (priority 1997, dated 1999).

“Also recorded” adds a separate entry of the source. Like-named read-outs stand apart in the source and are kept apart here.

In data set [1] the target is T1, SRC kinase (Gallus gallus, UniProt P00523, Y527F).
T1 construct: expressed in transfected cells; host or cells: NIH 3T3, stably transfected (gift of S. Courtneidge, Heidelberg)
The data set can be described thus: Src kinase activity assay (immunoprecipitate from src-transformed NIH 3T3 cells). The data set is classed as biochemical, chicken. Conditions: read-out: IC50 (50% inhibition of phosphorylation) SRC kinase. The method, then:
Src kinase activity assay: src-transformed NIH 3T3 cells were grown in 24-well plates to confluency; rinsed twice with a solution containing 20 mM Tris, 0.1 mM sodium-o-vanadate, and 150 mM NaCl (pH 7.5); and lysed in 100 μl/well of lysis buffer containing 20 mM Tris (pH 8.0), 150 mM NaCl, 1% Nonidet P-40, 2.5 mM EDTA, 10 mM NaF, 1% trasylol, and 20 μm leupeptin. The lysate was clarified by centrifugation and subjected to immunoprecipitation with the anti-Src monoclonal antibody MAb 327 (Oncogene Science; 0.5 μg antibody/80 μg protein) for 1 hour at 4° C. Then, goat anti-mouse IgG (Sigma; 0.2 μg per 0.5 μg monoclonal antibody 327) was added and incubation was continued for 30 mi followed by another 40 min of incubation with 10 μl of protein A-Sepharose Cl-4B (Pharmacia). The immunoprecipitates were washed five times with the lysis buffer and twice with kinase buffer containing 40 mM Hepes (pH 7.4), 0.5 mM dithiothreitol, 5 mM MnCl2, and 0.1 mM sodium-o-vanadate. The immunoprecipitates were suspended in kinase buffer and aliquots corresponding to 40 μg of cell lysate protein were preincubated with or without tyrphostin for 15 min at 30° C. Then, the kinase reaction was performed in the presence of 2 μg of acid-treated enolase and 10 μCi of [γ-^32 P]ATP (2 μM) in a final volume of 30 μl. The reaction was terminated by addition of SDS-PAGE sample buffer (6% SDS, 30% β-mercaptoetlhanol, 40% glycerol, and 0.5 mg/ml bromophenol blue) and the incorporation of radioactivity in the enolase was analyzed by SDS-PAGE and autoradiography as well as Phosphor-Imager quantification.

Data set [2] relates to porcine aortic smooth muscle cells (SMC). The data set can be described thus: Inhibition of cell proliferation and recovery, porcine SMC. The data set is classed as cell-based. Conditions: for inhibitory effect on porcine SMC growth (in words) / toxicity on SMC / inhibition at 10 µM: 10 μM; for inhibitory effect on porcine SMC growth (in words): FIGS. 3-7; for toxicity on SMC / reversibility of the inhibitory effect / recovery of SMC growth after washout: porcine SMC; for inhibition at 10 µM: Sus scrofa; for reversibility of the inhibitory effect / recovery of SMC growth after washout: cultures washed, cells allowed to recover. The method, then:
Smooth muscle cells (SMC) were obtained under aseptic conditions from porcine abdominal aortas, and human internal mammary arteries (IMA). Specimens from the operating room were transferred on ice to the tissue culture room. Each artery was cut open and the endothelial surface mechanically scraped. […] The tissue fragments were then placed in an incubator at 37° C. under 9% CO2 atmosphere until SMC outgrowth was detected (typically within 3-7 days). […] For experiments testing the effect of tyrphostins on growth inhibition and recovery (see below), SMC from passages 1-3 were replated in 15 mm wells pretreated with 3 μg/cm^2 fibronectin (Biological Industries, Kibbutz Beit Haemek, Israel) at 15,000 cells/well.
Inhibition of cell proliferation and recovery: Monolayer cell growth inhibition and recovery experiments were repeated 3 or 4 times. Each experiment was performed in triplicate. […] Cultures were treated with a tyrphostin (10 μM) dissolved in 0.1% DMSO on days 1 and 3. On day 6, cultures were washed and the cells allowed to recover. Typically cells were counted on days 3 and 5 for inhibition, and on days 7, 10 and 15 for recovery, other schedules were also employed as reported below.

The target of data set [3] is T2, EGFR (Mus musculus, UniProt Q01279).
T2 construct: Membranes were prepared from confluent cultures of Swiss 3T3 cells; endogenous in cells; host or cells: Swiss 3T3 (obtained from E. Rozengurt, London)
T2 sequence (Q01279 25-1210): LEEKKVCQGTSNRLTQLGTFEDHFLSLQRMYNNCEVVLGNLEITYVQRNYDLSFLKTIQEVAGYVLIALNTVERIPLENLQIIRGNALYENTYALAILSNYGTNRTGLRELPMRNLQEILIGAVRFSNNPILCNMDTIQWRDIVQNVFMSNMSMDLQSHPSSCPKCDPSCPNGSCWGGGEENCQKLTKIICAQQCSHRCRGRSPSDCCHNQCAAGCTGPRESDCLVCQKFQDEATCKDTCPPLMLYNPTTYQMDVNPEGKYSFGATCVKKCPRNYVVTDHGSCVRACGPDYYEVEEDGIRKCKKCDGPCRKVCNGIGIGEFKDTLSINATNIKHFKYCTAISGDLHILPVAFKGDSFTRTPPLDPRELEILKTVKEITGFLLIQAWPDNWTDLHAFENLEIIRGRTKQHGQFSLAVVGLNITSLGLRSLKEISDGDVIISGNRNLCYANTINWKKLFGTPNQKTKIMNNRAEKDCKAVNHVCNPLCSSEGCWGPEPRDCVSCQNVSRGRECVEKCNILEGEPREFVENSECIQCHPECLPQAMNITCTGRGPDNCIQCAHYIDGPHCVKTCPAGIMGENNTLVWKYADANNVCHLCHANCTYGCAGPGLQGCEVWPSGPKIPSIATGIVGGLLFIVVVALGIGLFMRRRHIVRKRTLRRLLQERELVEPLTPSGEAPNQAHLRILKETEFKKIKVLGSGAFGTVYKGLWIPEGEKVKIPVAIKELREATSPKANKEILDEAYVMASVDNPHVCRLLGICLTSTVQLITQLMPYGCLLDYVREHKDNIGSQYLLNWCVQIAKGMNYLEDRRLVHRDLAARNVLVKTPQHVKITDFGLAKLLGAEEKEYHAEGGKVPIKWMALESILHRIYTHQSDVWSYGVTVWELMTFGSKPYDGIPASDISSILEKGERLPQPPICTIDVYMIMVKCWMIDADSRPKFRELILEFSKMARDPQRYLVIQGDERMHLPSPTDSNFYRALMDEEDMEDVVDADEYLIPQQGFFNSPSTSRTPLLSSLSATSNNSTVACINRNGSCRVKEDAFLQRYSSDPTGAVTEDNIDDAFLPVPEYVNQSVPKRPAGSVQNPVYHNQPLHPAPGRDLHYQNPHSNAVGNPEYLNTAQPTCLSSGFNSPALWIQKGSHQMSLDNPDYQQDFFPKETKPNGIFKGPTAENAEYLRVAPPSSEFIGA
The data set can be described thus: EGFR autophosphorylation, isolated membranes or intact Swiss 3T3 cells. Conditions: read-out: IC50 (50% inhibition of phosphorylation) EGFR. The data set is classed as biochemical.
Description: Membrane autophosphorylation assays: Membranes were prepared from confluent cultures of Swiss 3T3 cells as described [22]. For measuring receptor autophosphorylation, 10 μg membrane protein per assay were incubated for 20 min on ice in the presence of 1.2 μg/ml EGF or 2 μg/ml PDGF, or both; 50 mM Hepes (pH 7.5); and 3 mm MnCl2 (final concentrations) in a volume of 45 μl. In order to test the effects and determine the IC50 value of various tyrphostins, these were added in a volume of 0.5 μl (in DMSO; final concentration, 0.5%) 15 min before addition of the growth factors, in a range of concentrations. […] For quantification of radioactivity in electrophoresis gels, a Phospho-Imager (Molecular Dynamics, Fuji, or Bio-Rad) was used according to the instructions of the manufacturers. […]

Data set [4] has as its system PDGFR. Description: PDGFR autophosphorylation, isolated membranes or intact Swiss 3T3 cells. To be noted: read-out: IC50 (50% inhibition of phosphorylation) PDGFR. The data set is classed as biochemical. The method, then:
Assay of receptor autophosphorylation in intact 3T3 cells: Confluent Swiss 3T3 cells in 24-well plates (Nunc) were incubated for 20-24 hours in serum-free DMEM. Subsequently, tyrphostins were added at concentrations ranging from 0 to 100 μM (final DMSO concentration, 0.5%) and the incubation was continued for 6-8 hours. The cells were then stimulated with 100 ng/ml PDGF-BB for 5 min at room temperature or 600 ng/ml EGF for 2.5 min on ice. The growth factor treatment was terminated by washing twice with ice-cold PBS and the cells were scraped off the wells in 60 μl lysis buffer containing 20 mM Hepes (pH 7.4), 150 mM NaCl, 1% Triton X-100, 10 mM sodium pyrophosphate, 50 mM NaF, 2 mM sodium-o-vanadate, 20 μm zinc acetate, 10 nM EDTA, 2 mM [ethylenebis(oxyethilenenitrilo)] tetraacetic acid, 1 mM phenylmethylsulfonyl fluoride, and 5 μg/ml leupeptin.
The cell lysates were clarified by centrifugation (cooled microfuge, 17,000 rpm, 15 min) and analyzed by SDS-PAGE (6.5% gels) and immunoblotting with anti-phosphotyrosine antibodies (either PY 20, ICN, and subsequently a peroxidase-coupled secondary antibody, or RC20-peroxidase conjugate, Affinity, Nottingham, United Kingdom). The blots were developed with a chemiluminescence detection system (Western Light, Tropix, or ECL, Amersham). In some experiments PDGF receptors were immunoprecipitated with PDGF-R3 or DIG-1 antibodies as described prior to the analysis by immunoblotting with anti-phosphotyrosine antibodies.
Membrane autophosphorylation assays: Membranes were prepared from confluent cultures of Swiss 3T3 cells as described. For measuring receptor autophosphorylation, 10 μg membrane protein per assay were incubated for 20 min on ice in the presence of 1.2 μg/ml EGF or 2 μg/ml PDGF, or both; 50 mM Hepes (pH 7.5); and 3 mm MnCl2 (final concentrations) in a volume of 45 μl. […] For quantification of radioactivity in electrophoresis gels, a Phospho-Imager (Molecular Dynamics, Fuji, or Bio-Rad) was used according to the instructions of the manufacturers. […]

[5] abbreviates: 120 h, by day 5 (day given for AG1295 and AG1992), read-out: reduction in SMC count / inhibition of SMC growth over control.
The mark [6] stands for this setting: Table 2, read-out: mean reduction in SMC count compared to control cells (maximal inhibition in SMC growth).

Consider `Cc1nc2cc3nc(-c4ccccc4)cnc3cc2n1C` [AG1851], for which the figures for the IC50 in data set [1], in data set [3] and in data set [4] were above 30 µM, above 30 µM and 5 µM, respectively. For the same compound, the “inhibitory effect on porcine SMC growth (in words)” value in data set [2] was “very potent growth inhibition effect; also recorded: most effective inhibitory response; also recorded: highly effective in blocking proliferation”. The “toxicity on SMC” value in data set [2] was “without having a substantial toxic effect; also recorded: low lasting toxicity”. Besides, the inhibition at 10 µM in data set [2] (setting [5]) is 79%; in data set [2] (FIG. 6 experiment, read-out: maximal inhibitory effect on porcine SMC proliferation) it was 78%; in data set [2] (setting [6]), 79%. Besides, the “reversibility of the inhibitory effect / recovery of SMC growth after washout” value in data set [2] was “completely reversible; also recorded: normal cell growth appeared immediately after treatment with AG1851 was discontinued”.

As for `Cc1nc2cc3nc(-c4cccs4)cnc3cc2n1C` [AG1992], the IC50 in data set [1] was above 30 µM; in data set [3], above 30 µM; in data set [4], 1 µM. Also, the “inhibitory effect on porcine SMC growth (in words)” value in data set [2] is given as “very potent growth inhibition effect; also recorded: very effective proliferation inhibitors”. Besides, the “toxicity on SMC” value in data set [2] was “low lasting toxicity”. The inhibition at 10 µM in data set [2] (setting [5]) is 87%; in data set [2] (FIG. 7 experiment, read-out: maximal inhibitory effect on porcine SMC proliferation) it was 89%; in data set [2] (setting [6]), 87%. Further, the “reversibility of the inhibitory effect / recovery of SMC growth after washout” value in data set [2] is listed as “completely reversible”.

As a reminder, the IC50 is the concentration that gives 50% inhibition.
